In EP0277849A1, “Incorporation of one or more lipophilic, active principles into lipoproteins, lipoproteins obtained and pharmaceutical compositions containing them” (IRE-CELLTARG S.A., priority 1987, dated 1988):
pIC50: −log10 of the molar value. Read-outs that look alike come from different tables or passages of the source.

Key:
C. tropicalis = test: Extracellular infection in the infected-macrophage model; type: cell-based; conditions: Candida tropicalis, read-out: CIext50^(a)
Experimental: La lignée continue de macrophages J77468 d'origine murine provient d'un clonage de la souche J774 ATCC, et est cultivée en milieu RPMI 1640 additionné de glutamine 2 mM, 10% de sérum de veau foetal (décomplémenté 60 min. à 56°) et de 10 mM Hepes (pH 7.2). Une suspension de 5 10^6 cellules/ml sont infectées avec une culture de Candida tropicalis (5 10^5 levures/ml) provenant d'une culture de nuit dans de la casitone. Le milieu d'infection utilisé est du RPMI contenant 2 % de sérum de veau nouveau-né et 10 mM Hepes (pH 7.2).
Après 3 h d'incubation à 37° dans un mélange d'air 10 % C02, la phagocytose des levures est complète. La suspension cellulaire macrophages-Candida est centrifugée, lavée abondamment et répartie à raison de 10^5 macrophages infectés/alvéole dans des boîtes à 24 alvéoles contenant une lamelle de verre (diamètre 14 mm). Après 3 h de phagocytose (To), sur 100 macrophages, 32 contiennent de 1 à 6 Candida/macrophage, l'infection moyenne étant de 2 Candida/macrophage.
Toutes les levures ont été phagocytées sauf rares exceptions (estimation au microscope optique après coloration au May-Grünwald Giemsa). Douze concentrations différentes des drogues de référence et des drogues encapsulées dans les LDL sont distribuées dans les boîtes contenant les macrophages infectés.
L'évaluation de l'efficacité d'une drogue se fait à chaque concentration. Testées après 18 h d'incubation (37°, dans un mélange air-10 % C02), les levures se multiplient d'abord au sein des cellules hôtes, puis dans le milieu extracellulaire. Le taux de macrophages infectés est alors de 75 % chez les témoins. Une cellule peut contenir de 1 à plus de 20 Candida/cellule, la majorité contient de 2 à 6 levures/cellule. Le milieu de culture contient 10^8 Candida extracellulaires/ml (comptage dans une cellule de Burker).
L'action des AF encapsulés sur une infection extracellulaire peut être évaluée de deux manières : d'une part en déterminant le nombre de Candida extracellulaires dans un modèle d'infection intracellulaire (voir VIII § 1.1.), d'autre part en mesurant la concentration minimale inhibitrice (CMI) de ces composés par la méthode de dilutions successives dans des boîtes à multipuits (milieu RPMI).

L. mexicana amazonentis = test: In vitro antileishmanial model: intracellular amastigotes in peritoneal macrophages; type: cell-based; conditions: for Nombre d'amastigotes (b) (% des contrôles): 35°, mean (SD) of 4
Experimental: Le modèle in vitro utilisé, consiste à développer les formes intracellulaires (amastigotes) de Leishmania mexicana anazonentis dans des macrophages péritonéaux de souris Balb/c injectés initialement par les formes promastigotes.
La culture de macrophages est obtenue à partir des cellules de la cavité péritonéale.
Brièvement, la cavité péritonéale est lavée plusieurs fois avec du milieu RPMI 1640 contenant de la pénicilline (100 U/ml) et de la streptomycine (100 µg/ml) additionné de glutamine (2 mM) et de 20 % de sérum de veau foetal décomplémenté à la chaleur. Ce milieu constitue le milieu de culture complet. Après centrifugation de la suspension cellulaire ainsi obtenue, les cellules sont resuspendues dans le même milieu, puis incubées 1 heure à 37° C en présence de 5 % C02 dans des boîtes de Pétri. Les macrophages adhérents sont ensuite lavés plusieurs fois, détachés de leur support puis comptés. Un volume cellulaire contenant 2,5 x 10^5 macrophages est ajouté dans chaque puits (16 mm de diamètre) des boîtes de culture contenant chacun une lamelle en verre. Les cellules sont ainsi cultivées 3 jours à 37°C. Avant d'être utilisées, les cultures sont lavées 2 fois pour retirer les cellules non adhérentes. Dans ces conditions, les cultures contiennent 1,5 à 2,0 x 10^5 macrophages.
La souche de L. mexicana amazonentis est maintenue sous forme promastigote à 27° C par passage successif dans du milieu Schneider Drosophila contenant 100 µg/ml de gentamycine, 2 mM de glutamine, 5 gg/ml d'hémine et additionné de 20 % de sérum de veau foetal décomplémenté.
Une suspension de promastigotes en phase stationnaire est ajoutée à chaque culture de macrophages à raison de 4 parasites par cellule. Les cultures sont incubées à 34,5°-35°C (5 % C02-95 % air) pendant 7 heures. Les cultures infectées sont lavées avec du milieu sans sérum jusqu'à ce qu'il y ait moins de un parasite par 20 macrophages. Une culture (1 boîte à 4 puits) est fixée et colorée au May-Grûnwald Giemsa pour contrôler l'infection (jour 0). S'il y a moins de 50 organismes intracellulaires par 100 macrophages, l'infection est considérée trop faible pour une interprétation correcte des résultats. 24 heures après l'infection, le milieu de culture est remplacé par du milieu frais contenant ou non un agent thérapeutique. Nous avons choisi d'utiliser le dérivé oléoyl-kétoconazole seul ou incorporé à des LSL natives ou acétylées. Le milieu (± l'agent thérapeutique) est renouvelé au jour 3. Au jour 6, des cultures de macrophages Infectés sont fixées, colorées, séchées, la lamelle de verre est ensuite montée sur une lame pour l'observation microscopique.
Le nombre d'amastigotes contenu dans 100 à 200 macrophages est déterminé pour chaque culture. Le nombre moyen d'organismes par 100 macrophages au jour 6 dans les cultures traitées est exprimé en pourcentage du nombre moyen d'organismes par 100 macrophages dans les cultures contrôles au jour 6 (% de survie). Les cultures contrôles contiennent en moyenne 300 à 400 parasites par 100 macrophages; 60 % en moyenne des macrophages sont infectés et contiennent de 5 à 7 amastigotes.

[1] = Leishmania mexicana, Peritoneal macrophage, read-out: Activité (c) (% inhibition)

## CCCCCCCC/C=C\CCCCCCCC(=O)N1CCN(c2ccc(OC[C@H]3CO[C@](Cn4ccnc4)(c4ccc(Cl)cc4Cl)O3)cc2)CC1 [KO1]
C. tropicalis; addition de 2 % Pl.H. (plasma humain)
  pIC50: 4.30
C. tropicalis; addition de 2 % SVF (sérum de veau foetal)
  pIC50: 5.08
L. mexicana amazonentis; [1]
  inhibition at 0.5 µg/mL: 28%
  inhibition at 1 µg/mL: 43%
  inhibition at 1.4 µg/mL: 50%
  inhibition at 2 µg/mL: 56%
  inhibition at 2.5 µg/mL: 64%
  inhibition at 11 µg/mL: 90%
L. mexicana amazonentis; compared with kétoconazole
  index thérapeutique (rapport de ED50 kéto sur ED50 K01): 9
L. mexicana amazonentis; dose 0,5 µg/ml, 6 jours
  Nombre d'amastigotes (b) (% des contrôles): 72 (6) %
L. mexicana amazonentis; dose 1,0 µg/ml, 6 jours
  Nombre d'amastigotes (b) (% des contrôles): 57 (3) %
L. mexicana amazonentis; dose 1,4 µg/ml, 6 jours
  Nombre d'amastigotes (b) (% des contrôles): 50 (4) %
L. mexicana amazonentis; dose 2,0 µg/ml, 6 jours
  Nombre d'amastigotes (b) (% des contrôles): 44 (2) %
L. mexicana amazonentis; dose 2,5 µg/ml, 6 jours
  Nombre d'amastigotes (b) (% des contrôles): 36 (6) %
L. mexicana amazonentis; dose 11,0 µg/ml, 6 jours
  Nombre d'amastigotes (b) (% des contrôles): 10 (4) %
L. mexicana amazonentis; intracellular amastigotes, 6 jours
  ED50 (50 % d'inhibition): 1,4 µg KO1.ml
